# pIC50: −log10 of the molar value. Read-outs that look alike come from different tables or passages of the source.
# Columns and labels:
# [1] = tested on: MDA-MB-231 human breast cancer cell line; assay: Cell growth inhibition, WST-8 assay, MDA-MB-231; assay type: cell-based; conditions: Homo sapiens, MDA-MB-231, 96 h, 4 days
# Protocol: (§1) The effect of the compounds of the present invention on the growth of various cancer cell lines was tested. Cells were seeded in 96-well flat bottom cell culture plates at a density of 3000 cells/well with a tested compound and incubated at 37° C. in an atmosphere of 95% air and 5% CO2 for 4 days. […] Dojindo Molecular Technologies, Inc., Gaithersburg, Md.). […] The absorbance of the samples was measured at 450 nm using a ULTRA Tecan Reader (Molecular Device). […] The ability of SM-406 to inhibit cell growth as a single agent was tested in the MDA-MB-231 breast cancer cell line, SK-OV-3 and OVCAR-4 ovarian cancer cell lines and SK-MeI-2 melanoma cancer cell line. Cells were treated for 4 days. Cell growth was determined using a WST-based assay.
# [2] = tested on: SK-OV-3 ovarian cancer cell line; assay: Cell growth inhibition, WST-8 assay, SK-OV-3; assay type: cell-based; conditions: Homo sapiens, SK-OV-3, 96 h, 4 days
# Protocol: as §1
# [3] = tested on: SK-Mel-2 melanoma cancer cell line; assay: Cell growth inhibition, WST-based assay, SK-Mel-2; conditions: Homo sapiens, SK-MEL-2, 96 h; single agent, 4 days, FIG. 8
# Protocol: (§2) The ability of SM-406 to inhibit cell growth as a single agent was tested in the MDA-MB-231 breast cancer cell line, SK-OV-3 and OVCAR-4 ovarian cancer cell lines and SK-MeI-2 melanoma cancer cell line. Cells were treated for 4 days. Cell growth was determined using a WST-based assay.
# [4] = tested on: OVCAR-4 ovarian cancer cell line; assay: Cell growth inhibition, WST-based assay, OVCAR-4; conditions: Homo sapiens, OVCAR-4, 96 h; single agent, 4 days, FIG. 8
# Protocol: as §2
# HL-60 leukemia cell line = assay: Cell growth inhibition, WST-based assay, HL-60; conditions: Homo sapiens, HL-60, 96 h; single agent, 4 days, FIG. 9
# Protocol: (§3) The ability of SM-406 to inhibit cell growth as a single agent was tested in the HL-60 and SR leukemia cell lines. Cells were treated for 4 days. Cell growth was determined using a WST-based assay.
# SR leukemia cell line = assay: Cell growth inhibition, WST-based assay, SR; conditions: 96 h; single agent, 4 days, FIG. 9
# Protocol: as §3
# [5] = tested on: MDA-MB-231 breast cancer xenograft; assay: MDA-MB-231 breast cancer xenograft model in nude mice; assay type: in vivo
# Protocol: The ability of SM-406 (AT-406) to act as anti-tumor agent was tested in the MDA-MB-231 breast cancer xenograft (nude mice) model. SM-406 (AT-406) was administered qd×5 per week for two weeks. […] Body weight loss was less in weekly dosing (<5%) compared to the other dosing schedules.
# XIAP BIR3 = XIAP BIR3 (Homo sapiens, UniProt P98170); assay: Fluorescence polarization (FP) based competitive binding assay to XIAP BIR3; set-up: human XIAP (residues 241-356) fused to His-tag; His-tag; conditions: FP binding, XIAP BIR3 30 nM, SM5F 5 nM
# XIAP BIR3, sequence (P98170 241-356): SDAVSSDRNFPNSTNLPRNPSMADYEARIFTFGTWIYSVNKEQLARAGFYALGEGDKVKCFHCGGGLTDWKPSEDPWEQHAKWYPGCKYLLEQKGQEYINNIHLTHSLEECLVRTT
compound,measurement,setting,value
CN[C@@H](C)C(=O)N[C@H]1CN(C(=O)CC(C)C)CC[C@H]2CC[C@@H](C(=O)NC(c3ccccc3)c3ccccc3)N2C1=O [SM-406],pIC50,"[1]; WST-8, read-out: MDA-MB-231 IC50",> 6.00
same,pIC50,"[1]; single agent, FIG. 8, read-out: IC50, cell growth, MDA-MB-231",7.09
same,pIC50,"[2]; WST-8, read-out: SK-OV-3 IC50",> 6.00
same,pIC50,"[2]; single agent, FIG. 8, read-out: IC50, cell growth, SK-OV-3",6.62
same,pIC50,[3],5.18
same,pIC50,[4],6.03
same,pIC50,HL-60 leukemia cell line,7.24
same,pIC50,SR leukemia cell line,5.14
same,body weight loss,"[5]; 200 mg/kg, weekly dosing",< 5%
same,dose-dependent weight loss,"[5]; 100 and 200 mg/kg, qd×5 per week for two weeks",up to 11%
same,pIC50,XIAP BIR3,> 7.00

# — patent US8278293B2, “Diazo bicyclic Smac mimetics and the uses thereof” (The Regents of the University of Michigan, priority 2007, dated 2012)
